Columns and labels:
Human HDAC8 = target: T1, Human HDAC8 (Homo sapiens, UniProt Q9BY41); test: HDAC8 biochemical assay, AMC-labeled peptide substrate; conditions: read-out: HDAC Isoform IC50 (nM) 8
T1 construct: full length with C-terminal His tag, MW=42.6 kDa; His (C); host or cells: baculovirus expression system
T1 sequence (Q9BY41 1-377): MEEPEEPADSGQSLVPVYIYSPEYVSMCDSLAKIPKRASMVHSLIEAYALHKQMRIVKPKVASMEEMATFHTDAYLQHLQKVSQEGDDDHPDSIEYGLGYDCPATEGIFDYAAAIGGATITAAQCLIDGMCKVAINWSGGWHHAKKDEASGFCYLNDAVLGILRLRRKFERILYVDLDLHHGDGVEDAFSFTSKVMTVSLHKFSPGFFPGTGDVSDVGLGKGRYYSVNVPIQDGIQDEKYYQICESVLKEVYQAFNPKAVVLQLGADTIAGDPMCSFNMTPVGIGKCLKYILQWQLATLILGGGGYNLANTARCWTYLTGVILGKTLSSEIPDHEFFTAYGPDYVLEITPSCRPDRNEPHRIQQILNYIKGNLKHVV
Procedure: (§1) Activity against all zinc-dependent HDACs 1 to 11 was assessed by using an acetylated AMC-labeled peptide substrate. The substrate RHKK(Ac)AMC was used for HDAC1, HDAC2, HDAC3, HDAC6 and HDAC10; the substrate used for HDAC8 was RHK(Ac)K(Ac)AMC. Activity against the class IIa HDACs (HDAC4, 5, 7, 9) and HDAC11 was determined using a class IIa-specific substrate, BOC-Lys(trifluoroacetyl)-AMC (“Trifluoroacetyl Lysine”; see Lahm et al, 2007, PNAS, 104, 17335-17340). All assays were based on the AMC-labeled substrate and developer combination.
(§2) The protocol involved a two-step reaction: first, the substrate with the acetylated lysine side chain is incubated with a sample containing HDAC activity, to produce the deacetylated products, which are then digested in the second step by the addition of developer to produce the fluorescent signal proportional to the amount of deacetylated substrates.
Human HDAC8 (GenBankAccession No. NM_018486), full length with C-terminal His tag, MW=42.6 kDa, expressed in a baculovirus expression system.
(§3) Assay Buffer: 50 mM Tris-HCl, pH8.0, 137 mM NaCl, 2.7 mM KCl, 1 mM MgC2. Before use, 1 mg/mL BSA and DMSO are added.
HDAC8: 1 ng/ul HDAC8 and 100 µM HDAC8 substrate are in the reaction buffer with 1% DMSO final. Incubate for 2 hours at 30° C.
(§4) Stage 1: Deacetylation of substrate by incubation of HDAC enzymes with compounds
(§5) Stage 2: Development by addition of Developer to digest the deacetylated substrate, and generate the fluorescent colour; Detection: 360/460 Ex/Em

Human HDAC4 = target: T2, Human HDAC4 (Homo sapiens, UniProt P56524); test: HDAC4 biochemical assay, class IIa-specific substrate; conditions: read-out: HDAC Isoform IC50 (nM) 4
T2 construct: amino acids 627-1085 with N-terminal GST tag; GST (N); host or cells: baculovirus expression system
Summary of the method: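 Two-step fluorogenic read-out: deacetylated BOC-Lys(trifluoroacetyl)-AMC (50 μM) was digested by developer and measured at Ex/Em 360/460. Deacetylation by 0.004 ng/ul HDAC4 (aa 627-1085, N-terminal GST) ran 30 min at room temperature, pH 8.0 Tris buffer, 1 mg/mL BSA, 1% DMSO.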

Human HDAC5 = target: T3, Human HDAC5 (Homo sapiens, UniProt Q9UQL6); test: HDAC5 biochemical assay, class IIa-specific substrate; conditions: read-out: HDAC Isoform IC50 (nM) 5
T3 construct: full length with C-terminal His tag, MW=51.1 kDa; His (C); host or cells: baculovirus expression system
Summary of the method: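 Two-step fluorogenic read-out: deacetylated trifluoroacetyl-lysine AMC substrate (50 μM) digested by developer, measured at Ex/Em 360/460. Deacetylation step: 0.05 ng/ul His-tagged full-length baculoviral enzyme with compound, 30 min, room temperature, pH 8.0 Tris with 1 mg/mL BSA and 1% DMSO.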

Human HDAC2 = target: T4, Human HDAC2 (Homo sapiens, UniProt Q92769); test: HDAC2 biochemical assay, AMC-labeled peptide substrate; conditions: read-out: HDAC Isoform IC50 (nM) 2
T4 construct: full length with C-terminal GST-tag; GST (C); host or cells: baculovirus expression system
Procedure: as §1, §2
Human HDAC2 (GenBank Accession No. NM_001527), full length with C-terminal GST-tag, MW=82.9 kDa, expressed inbaculovirus expression system.
as §3
HDAC2: 0.07 ng/ul HDAC2 and 50 μM HDAC substrate are in the reaction buffer with 1% DMSO final. Incubate for 1 hour at 30° C.
as §4, §5

Human HDAC9 = target: T5, Human HDAC9 (Homo sapiens, UniProt Q9UKV0); test: HDAC9 biochemical assay, class IIa-specific substrate; conditions: read-out: HDAC Isoform IC50 (nM) 9
T5 construct: amino acids 604-1066 with C-terminal His tag; His (C); host or cells: baculovirus expression system
Summary of the method: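 HDAC9 residues 604-1066 (C-terminal His tag, baculovirus-expressed) at 0.06 ng/ul with 50 μM class IIa substrate Boc-Lys(trifluoroacetyl)-AMC in Tris-HCl pH 8.0 buffer with BSA and 1% DMSO. 30 min at room temperature, then developer added; fluorescence read at 360/460 nm Ex/Em.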

Human HDAC10 = target: T6, Human HDAC10 (Homo sapiens, UniProt Q969S8); test: HDAC10 biochemical assay, AMC-labeled peptide substrate; conditions: read-out: HDAC Isoform IC50 (nM) 10
T6 construct: Human HDAC10 (a.a. 1-481); GST (N); His (C); host or cells: baculovirus expression system
T6 sequence (Q969S8 1-481): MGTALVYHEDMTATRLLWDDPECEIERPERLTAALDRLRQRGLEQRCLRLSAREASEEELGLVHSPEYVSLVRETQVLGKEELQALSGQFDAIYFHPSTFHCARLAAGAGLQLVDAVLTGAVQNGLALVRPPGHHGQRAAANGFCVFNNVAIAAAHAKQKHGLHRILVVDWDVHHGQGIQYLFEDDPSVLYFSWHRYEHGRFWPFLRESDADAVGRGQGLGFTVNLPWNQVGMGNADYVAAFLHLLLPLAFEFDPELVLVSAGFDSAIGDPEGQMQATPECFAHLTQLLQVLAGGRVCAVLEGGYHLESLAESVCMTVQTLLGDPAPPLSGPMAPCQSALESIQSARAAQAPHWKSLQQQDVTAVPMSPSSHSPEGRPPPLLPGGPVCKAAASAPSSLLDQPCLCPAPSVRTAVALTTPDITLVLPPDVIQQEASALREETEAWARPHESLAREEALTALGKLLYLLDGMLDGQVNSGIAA
Procedure: as §1, §2
Human HDAC10 (a.a. 1-481), GenBank Accession No. NM_032019 with N-terminal GST tag and C-terminal His tag, MW=78 kDa, expressed in baculovirus expression system.
as §3
HDAC10: 12 ng/ul HDAC10 and 50 μM HDAC substrate are in the reaction buffer with 1% DMSO final. Incubate for 2 hours at 30° C.
as §4, §5

T3 sequence (Q9UQL6 656-1122 limits assumed): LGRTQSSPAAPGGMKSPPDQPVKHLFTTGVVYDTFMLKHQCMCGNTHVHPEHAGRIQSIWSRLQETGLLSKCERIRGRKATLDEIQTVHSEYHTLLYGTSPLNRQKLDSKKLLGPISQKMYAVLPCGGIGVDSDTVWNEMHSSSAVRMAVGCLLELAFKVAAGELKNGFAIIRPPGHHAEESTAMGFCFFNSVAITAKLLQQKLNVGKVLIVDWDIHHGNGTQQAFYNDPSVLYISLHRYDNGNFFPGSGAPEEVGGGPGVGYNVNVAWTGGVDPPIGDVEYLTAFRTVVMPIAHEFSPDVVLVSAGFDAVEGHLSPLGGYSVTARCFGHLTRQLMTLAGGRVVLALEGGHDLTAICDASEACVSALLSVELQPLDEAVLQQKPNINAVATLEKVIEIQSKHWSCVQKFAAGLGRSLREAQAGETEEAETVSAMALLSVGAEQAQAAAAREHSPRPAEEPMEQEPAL
T4 sequence (Q92769 whole entry, canonical isoform): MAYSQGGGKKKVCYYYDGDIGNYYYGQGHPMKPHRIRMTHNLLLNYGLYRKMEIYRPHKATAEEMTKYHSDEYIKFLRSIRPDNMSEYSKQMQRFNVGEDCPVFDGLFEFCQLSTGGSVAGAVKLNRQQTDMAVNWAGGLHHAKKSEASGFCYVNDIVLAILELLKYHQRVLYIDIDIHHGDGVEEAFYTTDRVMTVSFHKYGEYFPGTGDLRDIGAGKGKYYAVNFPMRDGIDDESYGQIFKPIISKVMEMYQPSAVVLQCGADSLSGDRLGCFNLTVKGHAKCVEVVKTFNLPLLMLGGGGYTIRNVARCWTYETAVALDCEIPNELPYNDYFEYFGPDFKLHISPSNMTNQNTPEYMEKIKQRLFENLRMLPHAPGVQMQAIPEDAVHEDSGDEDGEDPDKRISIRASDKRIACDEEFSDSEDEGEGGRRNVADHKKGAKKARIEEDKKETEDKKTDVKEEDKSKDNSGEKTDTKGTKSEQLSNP
T5 sequence (Q9UKV0 604-1066 isoform Q9UKV0-5): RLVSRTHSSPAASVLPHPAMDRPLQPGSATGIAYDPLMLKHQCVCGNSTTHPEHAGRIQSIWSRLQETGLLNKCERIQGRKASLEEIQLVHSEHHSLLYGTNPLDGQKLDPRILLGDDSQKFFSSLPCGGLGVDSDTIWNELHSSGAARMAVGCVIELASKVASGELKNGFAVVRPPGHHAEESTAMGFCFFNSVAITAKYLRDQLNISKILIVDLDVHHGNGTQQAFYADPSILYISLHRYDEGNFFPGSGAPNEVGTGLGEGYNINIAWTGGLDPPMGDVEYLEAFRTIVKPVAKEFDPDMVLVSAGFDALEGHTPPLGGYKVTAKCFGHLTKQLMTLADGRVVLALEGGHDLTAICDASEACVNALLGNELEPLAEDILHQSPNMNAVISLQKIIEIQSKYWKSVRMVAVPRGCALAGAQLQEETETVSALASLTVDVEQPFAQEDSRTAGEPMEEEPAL
T2 sequence (P56524 627-1084 limits assumed): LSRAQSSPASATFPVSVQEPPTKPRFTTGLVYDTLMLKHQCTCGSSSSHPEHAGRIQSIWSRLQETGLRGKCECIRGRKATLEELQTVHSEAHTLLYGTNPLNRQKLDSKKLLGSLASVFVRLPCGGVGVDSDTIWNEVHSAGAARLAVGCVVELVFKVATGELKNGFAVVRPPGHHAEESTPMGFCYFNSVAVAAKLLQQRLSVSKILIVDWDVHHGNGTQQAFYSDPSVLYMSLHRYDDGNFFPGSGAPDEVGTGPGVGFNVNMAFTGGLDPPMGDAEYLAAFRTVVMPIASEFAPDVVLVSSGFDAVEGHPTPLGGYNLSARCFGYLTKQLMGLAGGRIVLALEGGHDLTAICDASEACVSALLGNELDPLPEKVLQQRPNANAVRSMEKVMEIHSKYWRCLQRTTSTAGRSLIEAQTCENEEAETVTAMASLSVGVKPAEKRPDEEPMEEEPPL

Row | Structure (SMILES) | IC50 (Human HDAC8) | IC50 (Human HDAC4) | IC50 (Human HDAC5) | IC50 (Human HDAC2) | IC50 (Human HDAC9) | IC50 (Human HDAC10)
1 | O=C(c1ccc(N(Cc2ccc(-c3noc(C(F)(F)F)n3)s2)c2cnccn2)nn1)N1CCC12COC2 [Example FH, 6-{6-Oxa-1-azaspiro[3.3]heptane-1-carbonyl}-N-(pyrazin-2-yl)-N-({5-[5-(trifluoromethyl)-1,2,4-oxadiazol-3-yl]thiophen-2-yl}methyl)pyridazin-3-amine] | ≤ 10000 nM | ≤ 500 nM | ≤ 500 nM | > 10000 nM | ≤ 1000 nM | > 10000 nM
2 | O=C(c1cnnc(N(Cc2ccc(-c3noc(C(F)(F)F)n3)s2)c2cnccn2)c1)N1CCC(F)(F)CC1 [Example FY, 5-(4,4-Difluoropiperidine-1-carbonyl)-N-(pyrazin-2-yl)-N-({5-[5-(trifluoromethyl)-1,2,4-oxadiazol-3-yl]thiophen-2-yl}methyl)pyridazin-3-amine] | ≤ 10000 nM | ≤ 10000 nM | ≤ 1000 nM | > 10000 nM | ≤ 10000 nM | > 10000 nM
3 | FC(F)(F)c1nc(-c2ccc(CN(c3ccccn3)c3ccccn3)s2)no1 [Example U, N-(Pyridin-2-yl)-N-({5-[5-(trifluoromethyl)-1,2,4-oxadiazol-3-yl]thiophen-2-yl}methyl)pyridin-2-amine] | > 10000 nM | ≤ 10000 nM | ≤ 10000 nM | > 10000 nM | ≤ 10000 nM | > 10000 nM
4 | O=C(c1cnnc(N(Cc2ccc(-c3noc(C(F)(F)F)n3)s2)c2cnccn2)c1)N1CCOCC1 [Example EB, 5-(Morpholine-4-carbonyl)-N-(pyrazin-2-yl)-N-({5-[5-(trifluoromethyl)-1,2,4-oxadiazol-3-yl]thiophen-2-yl}methyl)pyridazin-3-amine] | ≤ 10000 nM | ≤ 10000 nM | ≤ 1000 nM | > 10000 nM | ≤ 10000 nM | > 10000 nM
5 | O=C(O)c1cnnc(N(Cc2sc(-c3noc(C(F)(F)F)n3)cc2F)c2cnccn2)c1 [Example FA, 6-[({3-fluoro-5-[5-(trifluoromethyl)-1,2,4-oxadiazol-3-yl]thiophen-2-yl}methyl)(pyrazin-2-yl)amino]pyridazine-4-carboxylic acid] | ≤ 10000 nM | ≤ 10000 nM | ≤ 1000 nM | > 10000 nM | ≤ 10000 nM | > 10000 nM
6 | O=C(c1cnnc(N(Cc2ccc(-c3noc(C(F)(F)F)n3)s2)c2cnccn2)c1)N1CCC1 [Example FS, 5-(Azetidine-1-carbonyl)-N-(pyrazin-2-yl)-N-({5-[5-(trifluoromethyl)-1,2,4-oxadiazol-3-yl]thiophen-2-yl}methyl)pyridazin-3-amine] | ≤ 10000 nM | ≤ 10000 nM | ≤ 1000 nM | > 10000 nM | ≤ 10000 nM | > 10000 nM
7 | O=C(c1cnnc(N(Cc2ccc(-c3noc(C(F)(F)F)n3)s2)c2cnccn2)c1)N1CC2(COC2)C1 [Example FZ, 5-{2-Oxa-6-azaspiro[3.3]heptane-6-carbonyl}-N-(pyrazin-2-yl)-N-({5-[5-(trifluoromethyl)-1,2,4-oxadiazol-3-yl]thiophen-2-yl}methyl)pyridazin-3-amine] | ≤ 10000 nM | ≤ 10000 nM | ≤ 1000 nM | > 10000 nM | ≤ 10000 nM | > 10000 nM
8 | Cc1nccnc1N(Cc1ccc(-c2noc(C(F)(F)F)n2)s1)c1cnccn1 [Example BE, 3-Methyl-N-(pyrazin-2-yl)-N-({5-[5-(trifluoromethyl)-1,2,4-oxadiazol-3-yl]thiophen-2-yl}methyl)pyrazin-2-amine] | ≤ 10000 nM | ≤ 500 nM | ≤ 500 nM | > 10000 nM | ≤ 1000 nM | > 10000 nM

Next, values leading:

Row | IC50 (Human HDAC8) | IC50 (Human HDAC4) | IC50 (Human HDAC5) | IC50 (Human HDAC2) | IC50 (Human HDAC9) | IC50 (Human HDAC10) | Structure (SMILES)
9 |  | ≤ 10000 nM | ≤ 10000 nM |  | ≤ 10000 nM |  | FC(F)(F)c1cnnc(N(Cc2ccc(-c3noc(C(F)(F)F)n3)s2)c2cccnn2)c1 [Example ER, N-(Pyridazin-3-yl)-5-(trifluoromethyl)-N-({5-[5-(trifluoromethyl)-1,2,4-oxadiazol-3-yl]thiophen-2-yl}methyl)pyridazin-3-amine]
10 | ≤ 10000 nM | ≤ 500 nM | ≤ 500 nM | > 10000 nM | ≤ 1000 nM | > 10000 nM | NC(=O)c1ccc(N(Cc2ccc(-c3noc(C(F)(F)F)n3)s2)c2cnccn2)nn1 [Example DQ, 6-[(Pyrazin-2-yl)({5-[5-(trifluoromethyl)-1,2,4-oxadiazol-3-yl]thiophen-2-yl}methyl)amino]pyridazine-3-carboxamide]
11 |  | ≤ 10000 nM | ≤ 10000 nM |  | > 10000 nM |  | COc1cncc(N(Cc2ccc(-c3noc(C(F)(F)F)n3)s2)c2cc(C(F)(F)F)cnn2)n1 [Example EN, N-(6-Methoxypyrazin-2-yl)-5-(trifluoromethyl)-N-({5-[5-(trifluoromethyl)-1,2,4-oxadiazol-3-yl]thiophen-2-yl}methyl)pyridazin-3-amine]
12 |  | ≤ 10000 nM | ≤ 10000 nM |  | > 10000 nM |  | FC(F)(F)c1cnnc(N(Cc2ccc(-c3noc(C(F)(F)F)n3)s2)c2cc(C(F)(F)F)cnn2)c1 [Example EU, 5-(Trifluoromethyl)-N-({5-[5-(trifluoromethyl)-1,2,4-oxadiazol-3-yl]thiophen-2-yl}methyl)-N-[5-(trifluoromethyl)pyridazin-3-yl]pyridazin-3-amine]
